Results taken from PubChem BioAssay AID330 (DTP/NCI, 2004).
Several values for one entry are separate records, joined by “and”; a condition that tells them apart may be missing. Identical values can stand only once. Toxic doses and inconclusive results are not listed. Rule for the calls: active = survival T/C of 150% or more; inactive = T/C below 125% in these data.

Tested on: P388 leukemia ip, CD2F1 mice, survival T/C
Test: NCI In Vivo Anticancer Drug Screen. Data for tumor model P388 Leukemia (intraperitoneal) in CD2F1 (CDF1) mice
Details: endpoint: median survival time, higher = longer survival
Method in brief: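 Mice carrying the transplanted tumor received test compound or vehicle. Survival was recorded in each group, and the value is the treated-group measurement divided by that of the vehicle-treated control group.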

[1] = dose: 50.0 mg/kg/injection, schedule: Q01DX009 (ip), vehicle: saline with Tween-80
[2] = dose: 100.0 mg/kg/injection, schedule: Q01DX009 (ip), vehicle: saline with Tween-80
[3] = dose: 200.0 mg/kg/injection, schedule: Q01DX009 (ip), vehicle: saline with Tween-80
[4] = dose: 60.0 mg/kg/injection, schedule: Q01DX005 (ip), vehicle: saline with Tween-80
[5] = dose: 100.0 mg/kg/injection, schedule: Q04DX002 (ip), vehicle: saline with Tween-80

Measured: T/C

Cc1ccccc1C1(O)CCCCC1
inactive: [1] 105 % of control | [2] 107 % of control | [3] 101 % of control

COc1c2c(cc3c1-c1c(cc4c(c1OC)OCO4)CC(C)C(C)C3)OCO2 (stereo unspecified)
inactive: dose: 13.75 mg/kg/injection, schedule: Q01DX005 (ip), vehicle: Klucel (hydroxypropylcellulose) (HPC) 95 % of control | dose: 27.5 mg/kg/injection, schedule: Q01DX005 (ip), vehicle: Klucel (hydroxypropylcellulose) (HPC) 98 % of control | dose: 55.0 mg/kg/injection, schedule: Q01DX005 (ip), vehicle: Klucel (hydroxypropylcellulose) (HPC) 98 % of control | dose: 110.0 mg/kg/injection, schedule: Q01DX005 (ip), vehicle: Klucel (hydroxypropylcellulose) (HPC) 90 % of control

Cc1ccc(C)c2c(Nc3ccc4c(c3)OCO4)c(C(=O)O)cnc12
inactive: dose: 60.0 mg/kg/injection, schedule: Q01DX005 (ip), vehicle: Klucel + Tween-80 95 % of control | dose: 120.0 mg/kg/injection, schedule: Q01DX005 (ip), vehicle: Klucel + Tween-80 93 % of control

COc1ccc(NP2(=O)N(Cc3ccc(Cl)cc3)CCCN2Cc2ccc(Cl)cc2)cc1
inactive: dose: 50.0 mg/kg/injection, schedule: Q01DX005 (ip), vehicle: Klucel (hydroxypropylcellulose) (HPC) 100 % of control | dose: 100.0 mg/kg/injection, schedule: Q01DX005 (ip), vehicle: Klucel (hydroxypropylcellulose) (HPC) 88 % of control

C=CS(=O)(=NN1C(=O)c2ccccc2C1=O)c1ccc(C)cc1 (stereo unspecified)
inactive: dose: 6.25 mg/kg/injection, schedule: Q01DX001 (ip), vehicle: Klucel (hydroxypropylcellulose) (HPC) 95 % of control | dose: 12.5 mg/kg/injection, schedule: Q01DX001 (ip), vehicle: Klucel (hydroxypropylcellulose) (HPC) 98 % of control | dose: 25.0 mg/kg/injection, schedule: Q01DX001 (ip), vehicle: Klucel (hydroxypropylcellulose) (HPC) 104 % of control and 95 % of control | dose: 50.0 mg/kg/injection, schedule: Q01DX001 (ip), vehicle: Klucel (hydroxypropylcellulose) (HPC) 101 % of control and 104 % of control | dose: 100.0 mg/kg/injection, schedule: Q01DX001 (ip), vehicle: Klucel (hydroxypropylcellulose) (HPC) 106 % of control and 113 % of control

O=C1CC23c4ccccc4N4C(=O)CC5OCC=C6CN1C2CC6C5C43 (stereo unspecified)
inactive: [4] 101 % of control | dose: 120.0 mg/kg/injection, schedule: Q01DX005 (ip), vehicle: saline with Tween-80 92 % of control | dose: 240.0 mg/kg/injection, schedule: Q01DX005 (ip), vehicle: saline with Tween-80 92 % of control

CS(=O)(=O)ON1C(=O)c2ccccc2C1=O
inactive: dose: 25.0 mg/kg/injection, schedule: Q04DX003 (ip), vehicle: Klucel (hydroxypropylcellulose) (HPC) 104 % of control and 108 % of control | dose: 50.0 mg/kg/injection, schedule: Q04DX003 (ip), vehicle: Klucel (hydroxypropylcellulose) (HPC) 105 % of control and 110 % of control | dose: 100.0 mg/kg/injection, schedule: Q04DX003 (ip), vehicle: Klucel (hydroxypropylcellulose) (HPC) 103 % of control and 95 % of control | dose: 200.0 mg/kg/injection, schedule: Q04DX003 (ip), vehicle: Klucel (hydroxypropylcellulose) (HPC) 100 % of control

COc1ccc(C2CC(=O)N(CC(=O)O)C(=O)C2)cc1
inactive: dose: 100.0 mg/kg/injection, schedule: Q04DX003 (ip), vehicle: suspension in saline 103 % of control | dose: 200.0 mg/kg/injection, schedule: Q04DX003 (ip), vehicle: suspension in saline 100 % of control | dose: 400.0 mg/kg/injection, schedule: Q04DX003 (ip), vehicle: suspension in saline 99 % of control

CCOc1ccc(O)c(CN2CCN(Cc3cc(OCC)ccc3O)CC2)c1
inactive: dose: 15.0 mg/kg/injection, schedule: Q01DX005 (ip), vehicle: saline with Tween-80 100 % of control | dose: 30.0 mg/kg/injection, schedule: Q01DX005 (ip), vehicle: saline with Tween-80 100 % of control | [4] 98 % of control and 124 % of control

CN(C)CCn1c2ccccc2c2cc([N+](=O)[O-])ccc21
inactive: dose: 50.0 mg/kg/injection, schedule: Q01DX009 (ip), vehicle: Klucel (hydroxypropylcellulose) (HPC) 102 % of control | dose: 100.0 mg/kg/injection, schedule: Q01DX009 (ip), vehicle: Klucel (hydroxypropylcellulose) (HPC) 105 % of control | dose: 200.0 mg/kg/injection, schedule: Q01DX009 (ip), vehicle: Klucel (hydroxypropylcellulose) (HPC) 108 % of control

O=C(O)C(Cc1ccccc1N(CCO)CCO)N1C(=O)c2ccccc2C1=O (stereo unspecified)
inactive: dose: 25.0 mg/kg/injection, schedule: Q01DX009 (ip), vehicle: saline with Tween-80 99 % of control | [1] 93 % of control | [2] 93 % of control | [3] 96 % of control

CC(C)C1CCC(C)C1C(N)=O (stereo unspecified)
inactive: [5] 103 % of control | dose: 200.0 mg/kg/injection, schedule: Q04DX002 (ip), vehicle: saline with Tween-80 99 % of control | dose: 400.0 mg/kg/injection, schedule: Q04DX002 (ip), vehicle: saline with Tween-80 99 % of control

Cc1ccc(N2CCN(CCCC3(c4ccccc4)OCCO3)CC2C)cc1Cl (stereo unspecified)
inactive: dose: 50.0 mg/kg/injection, schedule: Q04DX003 (ip), vehicle: saline 106 % of control and 97 % of control | dose: 100.0 mg/kg/injection, schedule: Q04DX003 (ip), vehicle: saline with Tween-80 107 % of control | dose: 100.0 mg/kg/injection, schedule: Q04DX003 (ip), vehicle: saline 100 % of control and 95 % of control | dose: 200.0 mg/kg/injection, schedule: Q04DX003 (ip), vehicle: saline with Tween-80 117 % of control | dose: 200.0 mg/kg/injection, schedule: Q04DX003 (ip), vehicle: saline 107 % of control and 97 % of control | dose: 400.0 mg/kg/injection, schedule: Q04DX003 (ip), vehicle: saline 107 % of control and 97 % of control

C1CCC(C2CCCC[N-]2)[N-]C1.[Cl][Ru+2][Cl] (stereo unspecified)
inactive: dose: 7.5 mg/kg/injection, schedule: Q01DX005 (ip), vehicle: saline 103 % of control | dose: 15.0 mg/kg/injection, schedule: Q01DX005 (ip), vehicle: saline 100 % of control | dose: 30.0 mg/kg/injection, schedule: Q01DX005 (ip), vehicle: saline 103 % of control

OCc1ccc2c(c1)CCC2
inactive: dose: 50.0 mg/kg/injection, schedule: Q01DX009 (ip), vehicle: other 100 % of control

Cc1cc(O)c2c(=O)c(=O)c2c1
inactive: dose: 50.0 mg/kg/injection, schedule: Q01DX005 (ip), vehicle: saline with Tween-80 101 % of control | dose: 100.0 mg/kg/injection, schedule: Q01DX005 (ip), vehicle: saline with Tween-80 103 % of control

COC1/C=C\C=C(/C)C(=O)NC2=CC(=O)C(NC3CC3)=C(CC(C)CC(OC)C(O)C(C)/C=C(/C)C1OC(N)=O)C2=O (stereo unspecified)
inactive: dose: 12.5 mg/kg/injection, schedule: Q04DX002 (ip), vehicle: saline with Tween-80 107 % of control | dose: 18.75 mg/kg/injection, schedule: Q04DX002 (ip), vehicle: saline with Tween-80 108 % of control | dose: 25.0 mg/kg/injection, schedule: Q04DX002 (ip), vehicle: saline with Tween-80 107 % of control and 113 % of control | dose: 37.5 mg/kg/injection, schedule: Q04DX002 (ip), vehicle: saline with Tween-80 108 % of control | dose: 50.0 mg/kg/injection, schedule: Q04DX002 (ip), vehicle: saline with Tween-80 111 % of control and 113 % of control | dose: 75.0 mg/kg/injection, schedule: Q04DX002 (ip), vehicle: saline with Tween-80 117 % of control | [5] 120 % of control and 88 % of control

Cc1nc2c(ccc3cc4ccccc4cc32)cc1N(CCO)CCO
inactive: dose: 50.0 mg/kg/injection, schedule: Q01DX009 (ip), vehicle: saline + Tween-80 + alcohol 110 % of control | dose: 100.0 mg/kg/injection, schedule: Q01DX009 (ip), vehicle: saline + Tween-80 + alcohol 108 % of control | dose: 200.0 mg/kg/injection, schedule: Q01DX009 (ip), vehicle: saline + Tween-80 + alcohol 99 % of control
